Here are results for 22 compounds from patent publication US20230295115A1, “SUBSTITUTED ISOQUINOLINYLMETHYL AMIDES, ANALOGUES THEREOF, AND METHODS USING SAME” (priority 2020, published 2023).

What is called pEC50 is −log10 of the EC50, conventionally taken in molar units.

The structures appear in SMILES notation. pEC50: −log10 of the molar value.

The subject of the first test is HBV rcDNA. Kind of test: HepDE19 assay with bDNA quantitation of HBV rcDNA. In kind it is cell-based, hepatitis B virus (HBV). The settings on record: HepDE19 cells, 7 day incubation, rcDNA measured by Quantigene 2.0 bDNA assay, top concentration 25 μM; read-out: DE-19bDNA EC50. The method, then:
HepDE19 assay with bDNA quantitation of HBV rcDNA:
HepDE19 (50,000 cells/well) were plated in 96-well collagen-coated tissue-culture treated microtiter plates in DMEM/F12 medium supplemented with 10% fetal bovine serum, 1% penicillin-streptomycin and 1 μg/mL tetracycline and incubated in a humidified incubator at 37° C. and 5% CO2 overnight. Next day, the cells were switched to fresh medium without tetracycline and incubated for 4 hours at 37° C. and 5% CO2. […] The final DMSO concentration in the assay was 0.5%. The plates were incubated for 7 days in a humidified incubator at 37° C. and 5% CO2. Following a 7 day-incubation, the level of rcDNA present in the inhibitor-treated wells was measured using a Quantigene 2.0 bDNA assay kit (Affymetrix, Santa Clara, CA) with HBV specific custom probe set and manufacturers instructions. Concurrently, the effect of compounds on cell viability was assessed using replicate plates, plated at a density of 5,000 cells/well and incubated for 4 days, to determine the ATP content as a measure of cell viability using the cell-titer glo reagent (CTG; Promega Corporation, Madison, WI) as per manufacturer's instructions.
Consider `CC(c1c[nH]c(=O)c2cc(F)c(F)cc12)N(C)C(=O)c1cc2ccccc2[nH]1` (single isomer, unassigned) [Compound 1, N-(1-(6,7-Difluoro-1-oxo-1,2-dihydroisoquinolin-4-yl)ethyl)-N-methyl-1H-indole-2-carboxamide], for which the pEC50 was 5.60. On the same count and under the same terms, in the case of `CC(c1c[nH]c(=O)c2cc(F)c(F)cc12)N(C)C(=O)c1cc2ccccc2[nH]1` (single isomer, unassigned) [Compound 2, N-(1-(6,7-Difluoro-1-oxo-1,2-dihydroisoquinolin-4-yl)ethyl)-N-methyl-1H-indole-2-carboxamide] it was 7.70; in that of `CC(C)CN(C(=O)c1cc2ccccc2[nH]1)C(C)c1c[nH]c(=O)c2cc(F)c(F)cc12` (single isomer, unassigned) [Compound 3, N-(1-(6,7-Difluoro-1-oxo-1,2-dihydroisoquinolin-4-yl)ethyl)-N-isobutyl-1H-indole-2-carboxamide], 6.17; in that of `CC(C)CN(C(=O)c1cc2ccccc2[nH]1)C(C)c1c[nH]c(=O)c2cc(F)c(F)cc12` (single isomer, unassigned) [Compound 4, N-(1-(6,7-Difluoro-1-oxo-1,2-dihydroisoquinolin-4-yl)ethyl)-N-isobutyl-1H-indole-2-carboxamide], 8.00.

Turning to `CCN(C(=O)c1cc2ccccc2[nH]1)C(C)c1c[nH]c(=O)c2cc(F)c(F)cc12` (single isomer, unassigned) [Compound 5, N-(1-(6,7-Difluoro-1-oxo-1,2-dihydroisoquinolin-4-yl)ethyl)-N-ethyl-1H-indole-2-carboxamide], the pEC50 is 5.77. Still for that read-out and setting: in the case of `CCN(C(=O)c1cc2ccccc2[nH]1)C(C)c1c[nH]c(=O)c2cc(F)c(F)cc12` (single isomer, unassigned) [Compound 6, N-(1-(6,7-Difluoro-1-oxo-1,2-dihydroisoquinolin-4-yl)ethyl)-N-ethyl-1H-indole-2-carboxamide] it was 8.00.

As to `CC(c1c[nH]c(=O)c2cc(F)c(F)cc12)N(C)C(=O)c1cc2c(F)cccc2[nH]1` (single isomer, unassigned) [Compound 7, N-(1-(6,7-Difluoro-1-oxo-1,2-dihydroisoquinolin-4-yl)ethyl)-4-fluoro-N-methyl-1H-indole-2-carboxamide], the pEC50 was 5.77. Still for that read-out and setting: in the case of `CC(c1c[nH]c(=O)c2cc(F)c(F)cc12)N(C)C(=O)c1cc2c(F)cccc2[nH]1` (single isomer, unassigned) [Compound 8, N-(1-(6,7-Difluoro-1-oxo-1,2-dihydroisoquinolin-4-yl)ethyl)-4-fluoro-N-methyl-1H-indole-2-carboxamide] it was 7.70; in that of `CC(c1c[nH]c(=O)c2cc(F)c(F)cc12)N(C)C(=O)c1cc2ccc(F)cc2[nH]1` (single isomer, unassigned) [Compound 11, N-(1-(6,7-Difluoro-1-oxo-1,2-dihydroisoquinolin-4-yl)ethyl)-6-fluoro-N-methyl-1H-indole-2-carboxamide], 5.92; in that of `CC(c1c[nH]c(=O)c2cc(F)c(F)cc12)N(C)C(=O)c1cc2ccc(F)cc2[nH]1` (single isomer, unassigned) [Compound 12, N-(1-(6,7-Difluoro-1-oxo-1,2-dihydroisoquinolin-4-yl)ethyl)-6-fluoro-N-methyl-1H-indole-2-carboxamide], 7.70.

`CC(c1c[nH]c(=O)c2cc(F)c(F)cc12)N(C)C(=O)c1cc2cccc(F)c2[nH]1` (single isomer, unassigned) [Compound 13, N-(1-(6,7-Difluoro-1-oxo-1,2-dihydroisoquinolin-4-yl)ethyl)-7-fluoro-N-methyl-1H-indole-2-carboxamide]: the pEC50 is 5.47. The same measure, in the same setting: in the case of `CC(c1c[nH]c(=O)c2cc(F)c(F)cc12)N(C)C(=O)c1cc2cccc(F)c2[nH]1` (single isomer, unassigned) [Compound 14, N-(1-(6,7-Difluoro-1-oxo-1,2-dihydroisoquinolin-4-yl)ethyl)-7-fluoro-N-methyl-1H-indole-2-carboxamide] it was 7.70.

The same test, now with this note: Hepatitis B virus, HepDE19, 168 h, HepDE19 cells, 7 day incubation, rcDNA measured by Quantigene 2.0 bDNA assay, top concentration 25 μM; read-out: DE-19bDNA EC50.
`CC(c1c[nH]c(=O)c2cc(F)c(F)cc12)N(C)C(=O)c1cc2c(F)c(F)ccc2[nH]1` (racemic) [Compound 29, N-(1-(6,7-Difluoro-1-oxo-1,2-dihydroisoquinolin-4-yl)ethyl)-4,5-difluoro-N-methyl-1H-indole-2-carboxamide]: the pEC50 was 7.40. On the same count and under the same terms, then `CC(c1c[nH]c(=O)c2cc(F)c(F)cc12)N(C)C(=O)c1[nH]c2ccccc2c1Cl` (racemic) [Compound 60, 3-Chloro-N-(1-(6,7-difluoro-1-oxo-1,2-dihydroisoquinolin-4-yl)ethyl)-N-methyl-1H-indole-2-carboxamide], with 6.10; and `CC(C)CN(C(=O)c1cc2ccccn2c1)C(C)c1c[nH]c(=O)c2cc(F)c(F)cc12` (racemic) [Compound 116, N-(1-(6,7-Difluoro-1-oxo-1,2-dihydroisoquinolin-4-yl)ethyl)-N-isobutylindolizine-2-carboxamide], with 7.10. Take `CC(C)CN(C(=O)c1ccc(C(F)(F)F)c(F)c1)C(C)c1c[nH]c(=O)c2cc(F)c(F)cc12` (racemic) [Compound 117, N-(1-(6,7-Difluoro-1-oxo-1,2-dihydroisoquinolin-4-yl)ethyl)-3-fluoro-N-isobutyl-4-(trifluoromethyl)benzamide]: the pEC50 is 6.62.

Take `CC(C)CN(C(=O)c1ccc(C(F)(F)F)c(F)c1)C(C)c1c[nH]c(=O)c2c(F)c(F)ccc12` (racemic) [Compound 118, N-(1-(7,8-Difluoro-1-oxo-1,2-dihydroisoquinolin-4-yl)ethyl)-3-fluoro-N-isobutyl-4-(trifluoromethyl)benzamide]: the pEC50 is 5.65. Still for that read-out and setting: then `CC(c1c[nH]c(=O)c2cc(F)c(F)cc12)N(C)C(=O)C(=O)NC1CC1` (racemic) [Compound 143, N1-Cyclopropyl-N2-(1-(6,7-difluoro-1-oxo-1,2-dihydroisoquinolin-4-yl)ethyl)-N2-methyloxalamide], with at most 4.60.

In the case of `CC(c1c[nH]c(=O)c2cc(F)c(F)cc12)N(C)C(=O)C(=O)Nc1ccc(F)c(Cl)c1` (racemic) [Compound 144, N1-(3-Chloro-4-fluorophenyl)-N2-(1-(6,7-difluoro-1-oxo-1,2-dihydroisoquinolin-4-yl)ethyl)-N2-methyloxalamide], the pEC50 is 5.84.

Still in this test, the particulars now being: Hepatitis B virus, HepDE19, 168 h, read-out: DE-19bDNA EC50 (μM), HepDE19 cells, 7 day incubation, rcDNA measured by Quantigene 2.0 bDNA assay, top concentration 25 μM.
Turning to `CC(c1c[nH]c(=O)c2cc(F)c(F)cc12)N(C)C(=O)Cc1cc2ccccc2[nH]1` (racemic) [Compound 59, N-(1-(6,7-Difluoro-1-oxo-1,2-dihydroisoquinolin-4-yl)ethyl)-2-(1H-indol-2-yl)-N-methylacetamide], the EC50 amounted to 0.91 µM.

Still in this test, the particulars now being: read-out: DE-19bDNA EC50; HepDE19 cells, 7 day incubation, rcDNA measured by Quantigene 2.0 bDNA assay, top concentration 25 μM.
As for `CC(c1c[nH]c(=O)c2cc(F)c(F)cc12)N(C)C(=O)c1cc2cc(F)ccc2[nH]1` (single isomer, unassigned) [Compound 9, N-(1-(6,7-Difluoro-1-oxo-1,2-dihydroisoquinolin-4-yl)ethyl)-5-fluoro-N-methyl-1H-indole-2-carboxamide], the negative-log EC50 (pEC50) is 5.80. Still for that read-out and setting: in the case of `CC(c1c[nH]c(=O)c2cc(F)c(F)cc12)N(C)C(=O)c1cc2cc(F)ccc2[nH]1` (single isomer, unassigned) [Compound 10, N-(1-(6,7-Difluoro-1-oxo-1,2-dihydroisoquinolin-4-yl)ethyl)-5-fluoro-N-methyl-1H-indole-2-carboxamide] it was 7.70.
